A short description of data set [1]: UV-visible spectral analysis, molar extinction coefficient (MEC). It is filed as physicochemical. Conditions: at 290 nm; for Absorbance (10 µg mL^−1): 10 µg mL^−1 in methanol or 20 mM NaPB pH 7.4, 10 mm path length. An excerpt: The phototoxic potential of chemicals is related to the photochemical properties of compounds, especially light absorption within the range 290–700 nm and the generation of reactive species following absorption of UV-visible light. […] The studied depigmenting agents contain in their molecular structures π systems (some of them conjugated), phenolic and/or hydroxyl, carbonyl, and amine groups. The absorption peaks observed in the UV-visible spectra can be assigned to π-π* and n-π* electronic transitions.
As the wavelength of maximum absorbance obtained for all compounds was below 290 nm, the MEC value for each depigmenting compound was calculated at this wavelength (Table 1).
UV-visible spectral analysis was conducted as previously described. The depigmenting agents were dissolved in methanol or 20 mM sodium phosphate buffer (NaPB, pH 7.4) at 10 μg/mL (final concentration). The UV-visible absorption spectra were analyzed using a Shimadzu UV-1700 spectrophotometer (Shimadzu Corp., Kyoto, Japan) and UV-transparent quartz cuvettes (Hellma, Müllheim, Germany) with a 10 mm path length. Each spectrum was corrected for solvent-specific baseline absorption. Molar extinction coefficients (MEC) were calculated using the highest absorption peaks between 290 and 700 nm at 10 μM.

In another data set the target is tyrosinase. Conditions: cited from earlier work; for IC50: read-out: IC50 tyrosinase inhibition (literature).
A short description of data set [2]: ROS assay for photoreactivity (singlet oxygen and superoxide anion generation). In kind it is physicochemical. Conditions: for ROS assay: superoxide anion (O2^•−) / ROS assay: singlet oxygen (^1O2): 200 µM final concentration, mean ± SEM, n = 2; for ROS assay: superoxide anion (O2^•−): cut-off O2^•− ≥ 20 = photoreactive; for ROS assay: singlet oxygen (^1O2): cut-off ^1O2 ≥ 25 = photoreactive; for Photoreactivity classification from ROS assay: photoreactive if SO ≥ 25 and/or SA ≥ 20. As for the experimental part:
In addition to light absorption, the generation of reactive species from chemicals following the absorption of UV-visible light is seen as a key determinant for causing direct phototoxic reactions. The ROS assay can be used as an in chemico screening tool for evaluating the photoreactivity of chemicals. […] These depigmenting agents were tested at 200 μM (final concentration) to identify precipitation, coloration, or any other interference in the reaction mixture.
The ROS assay was performed as previously described in Aguiar et al. and the OECD ROS assay for photoreactivity protocol. Stock solutions of all substances were prepared at 10 mM in DMSO or 20 mM sodium phosphate buffer (NaPB, pH 7.4) and used within the same day. SO generation was detected by spectrophotometric measurement of RNO bleaching, followed by a decrease in the absorbance of RNO at 440 nm. SA generation was detected by observing the reduction of NBT to NBT^+, the formation of which can be monitored spectrophotometrically at 560 nm. The depigmenting agents were tested at a final concentration of 200 μM. When precipitation was observable (using a microscope) before light exposure, a lower concentration (20 μM) of the depigmenting agents was tested.
Photoreactivity of the test substances was evaluated according to the result (mean of triplicate determinations) from the ROS assay: a test substance was classified as a photoreactive substance when an SO value of 25 or more and/or an SA value of 20 or more was measured; in turn, it was considered to be a non-photoreactive substance when values of less than 25 for SO and less than 20 for SA were recorded.

Data set [3] in a line: Cell viability (PrestoBlue) in B-16V melanocytes. Conditions: mouse, B-16V melanocytes, IC50 for B-16V cell viability, 48 h treatment, 0–300 µM in DMSO. On the procedure:
(§1) Given that ABT is a glycosylated derivative of hydroquinone, there is a potential for the release of hydroquinone in vivo.
(§2) B-16V cells (DSMZ ACC-370, Braunschweig, Germany) were cultured in Dulbecco’s Modified Eagle’s Medium (DMEM) containing 3.7 g/L NaHCO3, 1.0 g/L d-glucose, 1 mM sodium pyruvate, and stable glutamine, supplemented with 10% (v/v) heat-inactivated fetal bovine serum (FBS), 50 U/mL penicillin, and 50 μg/mL streptomycin (all reagents from PAN-Biotech GmbH, Aidenbach, Germany). The cells were cultivated at 37 °C in a humidified atmosphere of 95% air and 5% CO2. Subculturing was performed twice a week, when the cells reached 70–80% confluence, through cell trypsinization with 0.25% Trypsin and 1 mM EDTA.4Na (PAN-Biotech GmbH, Aidenbach, Germany).
(§3) To evaluate cell viability, B-16V cells were seeded at a cell density of 3 × 10^4 cells/mL in 96-well plates and allowed to proliferate for 48 h. […] Then, PrestoBlue® reagent (Invitrogen, Waltham, MA, USA) was added to each well. When entering a living cell, the PrestoBlue® reagent is reduced from resazurin to resorufin, whose fluorescence is proportional to the number of metabolically active cells. Fluorescence was measured at an excitation/emission wavelength of 530/590 nm in an automated microplate reader (Synergy HT, Biotek Instruments Inc., Winooski, VT, USA).
(§4) GraphPad Prism 9.5.1 was used to fit non-linear regression to the data and calculate the IC50 values of depigmenting compounds for B-16V cell viability.

Data set [4] concerns Tyrosinase from Agaricus bisporus. As to the kind of experiment: Tyrosinase inhibition assay (L-tyrosine substrate). It is filed as biochemical. Conditions: for % Inhib (150 µM) of tyrosinase activity: 150 µM compound, n = 3. As for the experimental part: Sodium phosphate monobasic monohydrate was obtained from Fluka (Buchs, Switzerland). Sodium phosphate dibasic anhydrous and methanol were obtained from Carlo Erba Reagents (Val-de-Reuil, France). Imidazole, p-nitroso dimethylaniline (RNO), and nitro blue tetrazolium chloride (NBT) were purchased from Alfa Aesar (Ward Hill, MA, USA).
Tyrosinase inhibition assays were carried out as described in Rosa et al.. Briefly, 25 μL of tyrosinase enzyme solution (135 U/mL), 25 μL of ten serial concentrations of the compounds (dissolved in 0.1 M phosphate buffer pH 6.8 containing no more than 2.5% DMSO, yielding final concentrations of 0.3–150 μM), and 100 μL phosphate buffer were mixed in a 96-well plate and incubated at 37 ± 2 °C for 20 min. Then, 50 μL of 1.66 mM of tyrosine solution in 0.1 M phosphate buffer (pH 6.8) were added. Enzyme activity was measured at 490 nm every 10 min for 30 min in a Bio-Rad Model 680 Microplate Reader (Bio-Rad Laboratories, Inc., Hercules, CA, USA). In cases where the samples were very active at the minimum concentration tested, lower concentration ranges were assayed. […] The experiments were conducted in triplicate. For each concentration, enzyme activity was calculated as a percentage of the velocities compared to those of the assay using buffer without any inhibitor. […] The type of inhibition and inhibition parameters of the compounds, i.e., the Km and Vmax, were determined by Lineweaver–Burk plot analysis using various concentrations of L-tyrosine.

Another data set concerns B-16V melanocytes. As to the kind of experiment: Cell viability (PrestoBlue) in B-16V melanocytes. Conditions: 48 h treatment, 10–1000 µM in water. On the procedure:
as §1, §2, §3, §4

The next data set relates to B16 mouse melanoma cells. Conditions: cited from earlier work.

Values joined by “and” are separate entries in the source; they are usually repeats but may differ in a detail not shown here. Equal values may be shown once. Read-outs that look alike come from different tables or passages of the source.

As a reminder, the IC50 is the concentration that inhibits the measured activity by half.

`C=C[C@@](C)(/C=C/c1ccc(O)cc1)CCC=C(C)C` [BAK, bakuchiol]: the “Absorbance (10 µg mL^−1)” value in data set [1] came out at 0.2203. In addition, the IC50 on tyrosinase (at 1 mM of L-tyrosine) is 37.2 ± 5.18 µM. For the same compound, in data set [2], the “ROS assay: superoxide anion (O2^•−)” value is on record as “inconclusive” and the “ROS assay: singlet oxygen (^1O2)” value is “inconclusive”. Moreover, the “Solubility / precipitation in ROS assay reaction mixture” value in data set [2] (DMSO or 20 mM NaPB pH 7.4, reaction mixture for SO and SA, 200 µM, lowest concentration 20 µM) is listed as “showed precipitation in the reaction mixture”. Moreover, the IC50 at 48 h in data set [3] was determined as 43.4 ± 0.9 µM. In data set [4], the “% Inhib (150 µM) of tyrosinase activity” value was 52.59%.
As for `NC[C@H]1CC[C@H](C(=O)O)CC1` [TA, tranexamic acid, reference compound], in data set [1], the “MEC (molar extinction coefficient)” value was “ε = 380 L mol^−1 cm^−1” and the “Absorbance (10 µg mL^−1)” value turned out to be 0.0242. The “Effect on B-16V cell viability” value in the data set with B-16V melanocytes is given as “did not interfere with cell viability”. Also, in data set [4], the “% Inhib (150 µM) of tyrosinase activity” value is 13.20%.
In the case of `O=C1O[C@H]([C@@H](O)CO)C(O)=C1O` [AA, ascorbic acid, reference compound], in data set [1], the “MEC (molar extinction coefficient)” value is given as “ε = 2793 L mol^−1 cm^−1” and the “Absorbance (10 µg mL^−1)” value was found to be 0.1586. In data set [2], the “ROS assay: superoxide anion (O2^•−)” value is 26 and the “ROS assay: singlet oxygen (^1O2)” value is listed as 671. The “Effect on B-16V cell viability” value with B-16V melanocytes is recorded as “did not interfere with cell viability”. Moreover, the “Prevention of chromophore formation in tyrosinase assay” value in data set [4] (150 µM, cannot be interpreted uniquely as tyrosinase inhibition) is on record as 58.70%.
Take `CCCCc1ccc(O)cc1O` [4BR, 4-butylresorcinol]: in data set [1], the “MEC (molar extinction coefficient)” value is recorded as “ε = 3471 L mol^−1 cm^−1” and the “Absorbance (10 µg mL^−1)” value turned out to be 0.2088. Moreover, at tyrosinase, the IC50 is 21 µM and 13.5 µM. Further, in data set [2], the “ROS assay: superoxide anion (O2^•−)” value is on record as 13 ± 1, the “ROS assay: singlet oxygen (^1O2)” value came to 1 ± 0 and the “Photoreactivity classification from ROS assay” value (“Photoreactivity classification” below) is recorded as “non-photoreactive”. Also, in data set [3], the IC50 at 48 h was 97.6 ± 11.6 µM. The “% Inhib (150 µM) of tyrosinase activity” value in data set [4] was 100%. Besides, the “Type of tyrosinase inhibition (Lineweaver-Burk plot)” value in data set [4] (Vmax constant, Km increases with inhibitor concentration) is given as “competitive inhibitor”.
Consider `Oc1ccc(O)cc1` [hydroquinone], for which, in the data set with B16 mouse melanoma cells, the “Concentration achieving complete growth inhibition” value is 1250 to 2500 ng/mL and the “Concentration initiating growth inhibition” value is 625 ng/mL.
On to `O=c1cc(CO)occ1O` [Kojic acid, kojic acid, reference compound], for which, in data set [4], the “% Inhib (150 µM) of tyrosinase activity” value is given as 99.15%.
For `O=C1O[C@H]([C@@H](O)CO)C(O)=C1O[C@H]1O[C@H](CO)[C@@H](O)[C@H](O)[C@H]1O` [AA-2G, ascorbyl glucoside], in data set [1], the “MEC (molar extinction coefficient)” value is listed as “ε = 1025 L mol^−1 cm^−1” and the “Absorbance (10 µg mL^−1)” value worked out at 0.0303. Also, in data set [2], the “ROS assay: superoxide anion (O2^•−)” value was 1 ± 0, the “ROS assay: singlet oxygen (^1O2)” value was determined as 1 ± 1 and the “Photoreactivity classification” value is reported as “non-photoreactive”. In addition, the “% Inhib (150 µM) of tyrosinase activity” value in data set [4] is 11.17%.
As for `OC[C@H]1O[C@H](Oc2ccc(O)cc2)[C@H](O)[C@@H](O)[C@@H]1O` [ABT, α-arbutin], in data set [1], the “MEC (molar extinction coefficient)” value is given as “ε = 2004 L mol^−1 cm^−1” and the “Absorbance (10 µg mL^−1)” value is on record as 0.0736. The “Percentage of tyrosinase inhibition (literature)” value with tyrosinase (at 125 µM) is recorded as “≈ 30%”. Also, in data set [2], the “ROS assay: superoxide anion (O2^•−)” value is 0 ± 0, the “ROS assay: singlet oxygen (^1O2)” value amounted to 19 ± 1 and the “Photoreactivity classification” value was “cannot be classified as photoreactive”. Also, in data set [2] (listed as α-arbutin), the “Photoreactivity classification” value is listed as “non-photoreactive”. For the same compound, in data set [4], the “% Inhib (150 µM) of tyrosinase activity” value turned out to be 27.04%.

Source of the values: PMC10820089, “Comparative Studies on the Photoreactivity, Efficacy, and Safety of Depigmenting Agents” (Pharmaceuticals, 2023).
